Assay results: patent US9765082B2, “Crystalline form of tiotropium bromide with lactose” (EUTICALS SPA, priority 2014, dated 2017)

Columns and labels:
[1] = 40° C. for few hours; literature data; cited from earlier work
[2] = Solid-state change of Tiotropium Bromide monohydrate on heating, by DRX; assay type: physicochemical; details: 40° C. at 50% UR for 72 hours, FIGS. 4 and 4A
Description: FIGS. 4 and 4A show the DRX spectra of a Tiotropium Bromide monohydrate before and after the heating at 40° C. at 50% UR for 72 hours.
In fact, this is an equilibrium that is driven by the relative humidity of the environment. […] See the enclosed DRX spectra of a Tiotropium Bromide monohydrate before and after the above described treatment (FIGS. 4 and 4A).

[3] = Stability of the crystalline form on storage, analyzed by DRX (powder); assay type: physicochemical; details: particularly polyethylene bag as primary packaging; driven by relative humidity
Description: X-Ray Diffraction spectra were registered by means of diffractometer (Rigaku-D-Max) from a start angle [½ 2-theta] of 5.000 to 60.000. The diffraction diagrams were obtained employing a Cu anode (Kα=1,54060 Å and Kα=1,54439 Å). The HPLC method utilized to check the quality of Tiotropium Bromide in the examined samples is the same as described in the European Pharmacopoeia 7.0.

Row | Structure (SMILES) | Solid state after mild heating [1] | Solid state after heating (DRX) [2] | Crystalline form in the same storage conditions [3]
1 | C[N+]1(C)[C@@H]2C[C@@H](OC(=O)C(O)(c3cccs3)c3cccs3)C[C@H]1[C@@H]1O[C@@H]12 [Tiotropium Bromide monohydrate] | easily transformed | changes into the corresponding anhydrous form | 
2 | C[N+]1(C)[C@@H]2C[C@@H](OC(=O)C(O)(c3cccs3)c3cccs3)C[C@H]1[C@@H]1O[C@@H]12.[Br-] [Tiotropium Bromide, Tiotropium bromide] |  |  | may absorb or lose water, thus changing the crystalline form
